# Test results taken from patent US9193704B2, “Hydantoin derivatives as KV3 inhibitors” (AUTIFONY THERAPEUTICS LIMITED, priority 2011, dated 2015).
# Key:
# [1] = tested on: p-glycoprotein; test: In vivo pharmacokinetic assay with the PgP transport inhibitor Elacridar; settings: rat; Elacridar 3 mg/kg intravenous shortly before oral 1 mg/kg; 0.5 h; indicates absence of notable p-glycoprotein interactions
# Protocol: Adult male rats (Charles River, Italy) were dosed with test compound orally at 1 mg/kg (5 ml/kg, in 5% v/v DMSO, 0.5% w/v HPMC in water) and intravenously at 0.5 mg/kg (2 ml/kg, in 5% v/v DMSO 40% w/v PEG400 in saline). After oral administration, blood samples were collected under deep Isofluorane anesthesia from the portal vein and heart of each rat (1 rat per time point). After intravenous administration, serial blood samples were collected from the lateral tail vein of each rat. A further group of rats (n=1 per test compound) received a single intravenous administration of the PgP transport inhibitor, Elacridar (3 mg/kg) shortly before the oral administration of the test compound at 1 mg/kg, as above. Blood and brain samples were collected at a single timepoint of 0.5 h after dose administration for these animals. In all cases, blood samples were collected into potassium EDTA tubes.
# Blood and brain samples were assayed for test compound concentration using a method based on protein precipitation with acetonitrile followed by HPLC/MS-MS analysis with an optimized analytical method.
# The concentrations of test compound in blood (expressed as ng/ml) and brain (expressed as ng/g) at the different time points following either oral or intravenous dosing were analysed using a non-compartmental pharmacokinetic model using WinNonLin Professional version 4.1. The following parameters were derived:
# Oral dosing: Cmax, time of maximum concentration (Tmax), AUC, bioavailability (F %), fraction absorbed (Fa %), blood to brain ratio (AUC BB), and Fold-change in AUC BB in the presence of Elacridar.
# [2] = tested on: amphetamine induced hyperlocomotion; test: Mouse model of amphetamine induced hyperlocomotion; format: in vivo; settings: 60 mg/kg, 60 minute period following amphetamine administration, P<0.01
# Protocol: Example 33 was tested in the_mouse model of amphetamine induced hyperlocomotion described in Example 93 of WO2011/069951A1.
# [3] = molecular target: T1, human Kv3.1 channels (hKv3.1) (Homo sapiens, UniProt P48547); test: IonWorks Quattro electrophysiology, potentiation of hKv3.1 currents; format: cell-based; settings: between Kv3.1 and Kv3.2 channels
# T1 construct: expressed in transfected cells; host or cells: CHO/Gam/E1A-clone22 (CGE22) cells, CHO-K1-derived, transiently transduced with BacMam pFBM/human Kv3.1
# T1 sequence (P48547 1-511): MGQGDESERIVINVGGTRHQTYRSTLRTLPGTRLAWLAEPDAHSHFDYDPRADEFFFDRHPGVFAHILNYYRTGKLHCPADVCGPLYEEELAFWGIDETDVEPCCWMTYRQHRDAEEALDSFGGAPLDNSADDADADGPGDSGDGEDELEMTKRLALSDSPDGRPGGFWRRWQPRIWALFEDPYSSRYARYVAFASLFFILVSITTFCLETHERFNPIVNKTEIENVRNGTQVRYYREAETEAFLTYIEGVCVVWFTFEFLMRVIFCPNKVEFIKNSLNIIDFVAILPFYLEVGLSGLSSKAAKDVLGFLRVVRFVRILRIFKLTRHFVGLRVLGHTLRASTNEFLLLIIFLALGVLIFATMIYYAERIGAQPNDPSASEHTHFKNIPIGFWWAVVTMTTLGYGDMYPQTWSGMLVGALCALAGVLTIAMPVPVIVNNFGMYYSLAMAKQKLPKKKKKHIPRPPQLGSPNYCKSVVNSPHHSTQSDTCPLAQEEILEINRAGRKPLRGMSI
Structure (SMILES),change in AUC BB in the presence of Elacridar [1],increase in locomotor activity induced by amphetamine [2],difference in pEC50 values between the two channels [3]
"CC1(C)NC(=O)N(c2cnc(Oc3ccc4c(c3)C3(CCCC3)OC4)nc2)C1=O [Example 12, 5,5-dimethyl-3-(2-spiro[1H-isobenzofuran-3,1′-cyclopentane]-5-yloxypyrimidin-5-yl)imidazolidine-2,4-dione]",limited change,,
"CC[C@@]1(C)NC(=O)N(c2ccc(Oc3ccc4c(c3)C(C)(C)OC4)nc2)C1=O [Example 33, (5R)-3-[6-[(3,3-dimethyl-1H-isobenzofuran-5-yl)oxy]-3-pyridyl]-5-ethyl-5-methyl-imidazolidine-2,4-dione]",limited change,completely prevented,
"CC[C@H]1NC(=O)N(c2ccc(Oc3cccc4c3C3(CC3)CO4)nc2)C1=O [Reference Example 87, (5R)-5-ethyl-3-[6-(spiro[1-benzofuran-3,1′-cyclopropan]-4-yloxy)-3-pyridinyl]-2,4-imidazolidinedione]",,,0.7 log unit
"CC1(C)NC(=O)N(c2ccc(Oc3cccc4c3C3(CC3)CO4)nc2)C1=O [Reference Example 88, 5,5-dimethyl-3-[6-(spiro[1-benzofuran-3,1′-cyclopropan]-4-yloxy)-3-pyridinyl]-2,4-imidazolidinedione]",,,0.7 log unit

# Further lines, with some results ahead:
change in AUC BB in the presence of Elacridar [1],Structure (SMILES),increase in locomotor activity induced by amphetamine [2],difference in pEC50 values between the two channels [3]
limited change,"CC1(C)NC(=O)N(c2ccc(Oc3ccc4c(c3)C(C(C)(C)C)OC4)nc2)C1=O (single isomer, unassigned) [Example 50, 3-[6-[(3-tert-butyl-1,3-dihydroisobenzofuran-5-yl)oxy]-3-pyridyl]-5,5-dimethyl-imidazolidine-2,4-dione]",,
limited change,"CC1(C)NC(=O)N(c2ccc(Oc3ccc4c(c3)C(C)(C(F)(F)F)OC4)nc2)C1=O (single isomer, unassigned) [Example 52, 5,5-dimethyl-3-[6-[[3-methyl-3-(trifluoromethyl)-1H-isobenzofuran-5-yl]oxy]-3-pyridyl]imidazolidine-2,4-dione]",,
limited change,"CC1(C)NC(=O)N(c2ccc(Oc3ccc4c(c3)C3(CCC3)OC4)nc2)C1=O [Example 58, 5,5-dimethyl-3-(6-spiro[1H-isobenzofuran-3,1′-cyclobutane]-5-yloxy-3-pyridyl)imidazolidine-2,4-dione]",,
